Laboratory results as given in the supplement of paper PMC11451515.

Legend:
Settings in all cases: 48 h
NOMO1 [1] = assay: AUC of viability dose-response curve (% viability x log10 dose units); higher = less sensitive
Method in brief: (§1)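 Viability of medium-adapted leukemia cells was measured by CellTiter-Glo One luminescence after 48 h at 37°C with library compounds in DMSO. Doses were 11 threefold steps from 47 μM to 0.79 nM, in 1536-well plates at 500 or 1000 cells/well. Signals were normalised per plate to DMSO and cell-free wells and fitted with a four-parameter log-logistic model on log10 dose. Area under the curve was integrated by trapezoidal rule, with curves exceeding full viability scaled and failed quality-control curves removed.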

SEM cells [2] = assay: as above
Method in brief: as §1

P12-Ichikawa [3] = assay: as above
Method in brief: as §1

NOMO1 [4] = assay: cell viability relative to DMSO control; higher = less cytotoxic
Method in brief: (§2)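 NOMO1 or SEM (500 cells/well) or P12-Ichikawa (1000 cells/well) leukemia cells were adapted for at least four passages in each medium. They were seeded in 1536-well plates (5 μl) and pin-dosed with library compounds in DMSO over an 11-point threefold series, 47 μM to 0.79 nM. CellTiter-Glo One luminescence was read after 48 h at 37°C. Viability is the per-plate percentage relative to DMSO wells, with cell-free wells as background.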

SEM cells [5] = assay: as above
Method in brief: as §2

P12-Ichikawa [6] = assay: as above
Method in brief: as §2

NNCCc1ccccc1
AUC of viability dose-response curve
Settings | NOMO1 [1] | P12-Ichikawa [3] | SEM cells [2]
HPLM + 10% dialyzed FBS | 433 | 465 | 444
RPMI 5 mM glucose + 10% FBS | 450 | 464 | 466
RPMI 5 mM glucose + 10% dialyzed FBS | 467 | 470 | 468

cell viability [%]
Settings | NOMO1 [4] | P12-Ichikawa [6] | SEM cells [5]
HPLM + 10% dialyzed FBS, 0.000781 µM | 109 | 116 | –
HPLM + 10% dialyzed FBS, 0.00234 µM | 133 | 123 | –
HPLM + 10% dialyzed FBS, 0.00702 µM | 119 | 118 | –
HPLM + 10% dialyzed FBS, 0.0211 µM | 131 | 115 | –
HPLM + 10% dialyzed FBS, 0.0632 µM | 112 | 118 | –
HPLM + 10% dialyzed FBS, 0.19 µM | 115 | 116 | –
HPLM + 10% dialyzed FBS, 0.569 µM | 108 | 115 | –
HPLM + 10% dialyzed FBS, 1.71 µM | 118 | 113 | –
HPLM + 10% dialyzed FBS, 5.12 µM | 111 | 113 | –
HPLM + 10% dialyzed FBS, 15.4 µM | 60 | 106 | –
HPLM + 10% dialyzed FBS, 46.1 µM | 30.4 | 95.3 | –
RPMI 5 mM glucose + 10% FBS, 0.000781 µM | 117 | 120 | –
RPMI 5 mM glucose + 10% FBS, 0.00234 µM | 132 | 115 | –
RPMI 5 mM glucose + 10% FBS, 0.00702 µM | 122 | 120 | –
RPMI 5 mM glucose + 10% FBS, 0.0211 µM | 117 | 117 | –
RPMI 5 mM glucose + 10% FBS, 0.0632 µM | 124 | 110 | –
RPMI 5 mM glucose + 10% FBS, 0.19 µM | 117 | 119 | –
RPMI 5 mM glucose + 10% FBS, 0.569 µM | 115 | 129 | –
RPMI 5 mM glucose + 10% FBS, 1.71 µM | 114 | 128 | –
RPMI 5 mM glucose + 10% FBS, 5.12 µM | 114 | 109 | –
RPMI 5 mM glucose + 10% FBS, 15.4 µM | 103 | 106 | –
RPMI 5 mM glucose + 10% FBS, 46.1 µM | 21.2 | 91.9 | –
RPMI 5 mM glucose + 10% dialyzed FBS, 0.000781 µM | 116 | 109 | 102
RPMI 5 mM glucose + 10% dialyzed FBS, 0.00234 µM | 116 | 116 | 120
RPMI 5 mM glucose + 10% dialyzed FBS, 0.00702 µM | 129 | 116 | 120
RPMI 5 mM glucose + 10% dialyzed FBS, 0.0211 µM | 107 | 110 | 127
RPMI 5 mM glucose + 10% dialyzed FBS, 0.0632 µM | 125 | 123 | 127
RPMI 5 mM glucose + 10% dialyzed FBS, 0.19 µM | 121 | 111 | 112
RPMI 5 mM glucose + 10% dialyzed FBS, 0.569 µM | 122 | 112 | 115
RPMI 5 mM glucose + 10% dialyzed FBS, 1.71 µM | 109 | 116 | 127
RPMI 5 mM glucose + 10% dialyzed FBS, 5.12 µM | 109 | 113 | 103
RPMI 5 mM glucose + 10% dialyzed FBS, 15.4 µM | 114 | 107 | 117
RPMI 5 mM glucose + 10% dialyzed FBS, 46.1 µM | 75 | 96.9 | 75.3

CCN(CC)CCOc1ccc(/C(=C(\Cl)c2ccccc2)c2ccccc2)cc1
AUC of viability dose-response curve
Settings | NOMO1 [1] | P12-Ichikawa [3] | SEM cells [2]
HPLM + 10% dialyzed FBS | 458 | 466 | 470
RPMI 5 mM glucose + 10% FBS | 471 | 469 | 462
RPMI 5 mM glucose + 10% dialyzed FBS | 473 | 456 | 470

cell viability [%]
Settings | HPLM + 10% dialyzed FBS | RPMI 5 mM glucose + 10% FBS | RPMI 5 mM glucose + 10% dialyzed FBS
NOMO1 [4], 0.000781 µM | 124 | – | –
NOMO1 [4], 0.00234 µM | 123 | – | –
NOMO1 [4], 0.00702 µM | 130 | – | –
NOMO1 [4], 0.0211 µM | 136 | – | –
NOMO1 [4], 0.0632 µM | 150 | – | –
NOMO1 [4], 0.19 µM | 134 | – | –
NOMO1 [4], 0.569 µM | 130 | – | –
NOMO1 [4], 1.71 µM | 134 | – | –
NOMO1 [4], 5.12 µM | 109 | – | –
NOMO1 [4], 15.4 µM | 122 | – | –
NOMO1 [4], 46.1 µM | 102 | – | –
SEM cells [5], 0.000781 µM | 111 | 90 | 104
SEM cells [5], 0.00234 µM | 118 | 94.7 | 124
SEM cells [5], 0.00702 µM | 128 | 115 | 125
SEM cells [5], 0.0211 µM | 114 | 116 | 127
SEM cells [5], 0.0632 µM | 118 | 118 | 142
SEM cells [5], 0.19 µM | 116 | 128 | 144
SEM cells [5], 0.569 µM | 134 | 124 | 127
SEM cells [5], 1.71 µM | 125 | 116 | 126
SEM cells [5], 5.12 µM | 129 | 108 | 123
SEM cells [5], 15.4 µM | 112 | 116 | 126
SEM cells [5], 46.1 µM | 101 | 91.6 | 118

C[C@]12CCC(=O)C=C1CC[C@@H]1[C@@H]2[C@@H](O)C[C@@]2(C)[C@H]1CC[C@]2(O)C(=O)CO
AUC of viability dose-response curve
Settings | NOMO1 [1] | P12-Ichikawa [3] | SEM cells [2]
HPLM + 10% dialyzed FBS | 474 | 447 | 466
RPMI 5 mM glucose + 10% FBS | 456 | 425 | 427
RPMI 5 mM glucose + 10% dialyzed FBS | 458 | 412 | 443

cell viability [%]
Settings | NOMO1 [4] | P12-Ichikawa [6] | SEM cells [5]
HPLM + 10% dialyzed FBS, 0.000781 µM | 99 | 107 | 108
HPLM + 10% dialyzed FBS, 0.00234 µM | 109 | 106 | 96.8
HPLM + 10% dialyzed FBS, 0.00702 µM | 121 | 105 | 98.1
HPLM + 10% dialyzed FBS, 0.0211 µM | 127 | 107 | 118
HPLM + 10% dialyzed FBS, 0.0632 µM | 117 | 111 | 104
HPLM + 10% dialyzed FBS, 0.19 µM | 125 | 111 | 107
HPLM + 10% dialyzed FBS, 0.569 µM | 120 | 115 | 121
HPLM + 10% dialyzed FBS, 1.71 µM | 115 | 94.1 | 121
HPLM + 10% dialyzed FBS, 5.12 µM | 102 | 89.7 | 108
HPLM + 10% dialyzed FBS, 15.4 µM | 121 | 88.9 | 87.6
HPLM + 10% dialyzed FBS, 46.1 µM | 109 | 84.4 | 99.2
RPMI 5 mM glucose + 10% FBS, 0.000781 µM | 110 | 104 | 89.7
RPMI 5 mM glucose + 10% FBS, 0.00234 µM | 98.3 | 103 | 82.7
RPMI 5 mM glucose + 10% FBS, 0.00702 µM | 108 | 103 | 99.3
RPMI 5 mM glucose + 10% FBS, 0.0211 µM | 112 | 115 | 91.4
RPMI 5 mM glucose + 10% FBS, 0.0632 µM | 100 | 113 | 92.1
RPMI 5 mM glucose + 10% FBS, 0.19 µM | 129 | 109 | 102
RPMI 5 mM glucose + 10% FBS, 0.569 µM | 129 | 104 | 94.9
RPMI 5 mM glucose + 10% FBS, 1.71 µM | 111 | 83.2 | 97
RPMI 5 mM glucose + 10% FBS, 5.12 µM | 111 | 78.4 | 86.1
RPMI 5 mM glucose + 10% FBS, 15.4 µM | 105 | 70.9 | 68.2
RPMI 5 mM glucose + 10% FBS, 46.1 µM | 120 | 69.2 | 73.4
RPMI 5 mM glucose + 10% dialyzed FBS, 0.000781 µM | 119 | 104 | 99.2
RPMI 5 mM glucose + 10% dialyzed FBS, 0.00234 µM | 111 | 115 | 95
RPMI 5 mM glucose + 10% dialyzed FBS, 0.00702 µM | 106 | 107 | 114
RPMI 5 mM glucose + 10% dialyzed FBS, 0.0211 µM | 118 | 119 | 102
RPMI 5 mM glucose + 10% dialyzed FBS, 0.0632 µM | 116 | 112 | 102
RPMI 5 mM glucose + 10% dialyzed FBS, 0.19 µM | 113 | 114 | 112
RPMI 5 mM glucose + 10% dialyzed FBS, 0.569 µM | 130 | 100 | 96.7
RPMI 5 mM glucose + 10% dialyzed FBS, 1.71 µM | 125 | 78.5 | 94.2
RPMI 5 mM glucose + 10% dialyzed FBS, 5.12 µM | 118 | 78.3 | 92.5
RPMI 5 mM glucose + 10% dialyzed FBS, 15.4 µM | 116 | 65.4 | 70
RPMI 5 mM glucose + 10% dialyzed FBS, 46.1 µM | 127 | 64.2 | 62.7
